Measurements from US4490529A, “Cysteic acid and homocysteic acid analogues of methotrexate and aminopterin” (Dana-Farber Cancer Institute, Inc., priority 1983, dated 1984).

Assay: Solubility in water and precipitation behaviour
Assay type: physicochemical
Procedure: 4-Amino-4-deoxy-N^10 -methylpteroic acid dihydrate (720 mg, 2.0 mmoles) is added in small portions to a stirred solution of diethylphosphorocyanidate (915 mg, 5 mmoles) and triethylamine (500 mg, 5 mmoles) in N,N-dimethylformamide (DMF) (75 ml) previously dried over Linde 4A molecular sieves. The solution is stirred at room temperature overnight, and an extra 25% of diethyl phosphorocyanidate and Et3 N is added. TLC (silica gel, 4:1 chloroform-methanol) indicates the formation of the activated intermediate to be complete. The silylated D,L-homocysteic acid triethylammonium salt (1.8 g, 4 mmoles) is then added, and the reaction mixture is stirred at room temperature for 44 hours. After addition of a few milliliters of water, the solvent is removed with the aid of a rotary evaporator and the residue is dissolved in 3 percent ammonium bicarbonate, with a few drops of concentrated ammonia being added as needed. […] The solution is taken up in a minimum of H2 O with just enough Nh4 OH added to dissolve all the solid, and the solution is applied to a DEAE-cellulose column that has been pre-equilibrated with 3 percent ammonium bicarbonate and then washed to neutrality with H2 O. The column is eluted with a large volume of H2 O, and then again with 3% NH4 HCO3. […] Individual 5-10 ml volumes of the NH4 HCO3 eluate are monitored by TLC. […]

solubility in water: very soluble in water
Structure (SMILES): CN(Cc1cnc2nc(N)nc(N)c2n1)c1ccc(C(=O)NC(CCS(=O)(=O)O)C(=O)O)cc1 (racemic) [mAPA-D,L-HCysA, N-(4-Amino-4-deoxy-N^10-methylpteroyl)-D,L-homocysteic acid]
precipitation from basic solution (adjustment of the pH to 6, in contrast to methotrexate): cannot be precipitated from basic solution on adjustment of the pH to 6
